Test results taken from paper PMC4961418, “A Selective Irreversible Inhibitor of Furin Does Not Prevent Pseudomonas Aeruginosa Exotoxin A-Induced Airway Epithelial Cytotoxicity” (PLoS ONE, 2016).
Side chains are listed from the residue outwards. Peptide text beside a SMILES is read from it. * marks the point of attachment. Biotin = O=C1N[C@H]2[C@H](CS[C@H]2CCCCC(=O)*)N1; X1 = N=C(N)NCCCC(N*)P(=O)(Oc1ccccc1)Oc1ccccc1; Palmitoyl = CCCCCCCCCCCCCCCC(=O)*; Ahx = NCCCCCC(=O)O

What was measured:
matriptase = molecular target: T1, matriptase (Homo sapiens, UniProt Q9Y5Y6); assay: Fluorogenic protease activity assay, matriptase; format: biochemical; settings: 10 μM inhibitor, Boc-Gln-Ala-Arg-NH2Mec 50 μM, N = 3
T1 construct: purchased R&D Systems
T1 sequence (Q9Y5Y6 1-855): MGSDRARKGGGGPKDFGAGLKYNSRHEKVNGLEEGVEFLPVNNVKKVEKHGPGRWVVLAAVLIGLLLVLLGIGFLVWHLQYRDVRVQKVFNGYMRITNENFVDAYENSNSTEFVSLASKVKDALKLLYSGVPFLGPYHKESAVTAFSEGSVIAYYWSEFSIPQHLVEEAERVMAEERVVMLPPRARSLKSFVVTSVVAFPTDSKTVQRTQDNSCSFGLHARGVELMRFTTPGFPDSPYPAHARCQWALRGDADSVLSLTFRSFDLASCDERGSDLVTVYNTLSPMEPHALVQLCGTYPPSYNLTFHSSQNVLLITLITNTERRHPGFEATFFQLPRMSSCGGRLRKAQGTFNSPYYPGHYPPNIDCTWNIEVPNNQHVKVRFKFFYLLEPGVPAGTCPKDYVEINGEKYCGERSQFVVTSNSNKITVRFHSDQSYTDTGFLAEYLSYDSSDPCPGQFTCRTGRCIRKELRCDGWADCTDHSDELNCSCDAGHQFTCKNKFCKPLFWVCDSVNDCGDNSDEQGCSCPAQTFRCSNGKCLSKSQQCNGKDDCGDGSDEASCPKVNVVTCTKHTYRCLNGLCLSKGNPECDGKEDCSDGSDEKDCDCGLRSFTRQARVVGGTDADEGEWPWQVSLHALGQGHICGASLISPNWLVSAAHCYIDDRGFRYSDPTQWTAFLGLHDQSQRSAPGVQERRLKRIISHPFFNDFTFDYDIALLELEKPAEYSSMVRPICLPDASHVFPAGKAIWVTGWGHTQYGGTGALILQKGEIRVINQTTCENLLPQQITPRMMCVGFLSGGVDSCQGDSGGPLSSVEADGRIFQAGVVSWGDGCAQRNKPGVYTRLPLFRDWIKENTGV
Excerpt: (§1) Recombinant human enzymes were sourced as follows: furin and matriptase (R&D Systems); prostasin (Sino Biological); trypsin and chymotrypsin (Sigma-Aldrich); factor Xa and neutrophil elastase (Merck Millipore) and proteinase-3 and cathepsin G (Elastin Products, Missouri). Fluorogenic substrates were sourced as follows: p-Glu-Arg-Thr-Lys-Arg-NH2Mec and Boc-Gln-Ala-Arg-NH2Mec (R&D Systems); Boc-Ile-Glu-Gly-Arg-NH2Mec (Bachem); Z-Gly-Gly-Arg-NH2Mec, MeOSuc-Ala-Ala-Pro-Val-NH2Mec and Suc-Ala-Ala-Pro-Phe-NH2Mec (Sigma-Aldrich). All chemicals and reagents for the synthesis of QUB-F1 were supplied by Sigma-Aldrich unless otherwise indicated. Fmoc-Lys(Boc)-SASRIN resin was sourced from Bachem. Fmoc-protected amino acids and HCTU were supplied by Merck Millipore.
(§2) Recombinant protease activities were assessed using the cognate fluorogenic substrates (final concentration 50 μM) as follows: trypsin (Z-Gly-Gly-Arg-NH2Mec), prostasin and matriptase (Boc-Gln-Ala-Arg-NH2Mec), factor Xa (Boc-Ile-Glu-Gly-Arg-NH2Mec), neutrophil elastase and proteinase 3 (MeO-Suc-Ala-Ala-Pro-Val-NH2Mec), chymotrypsin and cathepsin G (Suc-Ala-Ala-Pro-Phe-NH2Mec). The rate of substrate hydrolysis in the presence or absence of furin inhibitors was assessed by continuous recording at λex 360 nm, λem 480 nm, over a period of 60 minutes using a FLUOstar Optima microplate reader (BMG Labtech). […]

proteinase 3 = molecular target: T2, proteinase 3 (Homo sapiens, UniProt P24158); assay: Fluorogenic protease activity assay, proteinase 3; format: biochemical; settings: 10 μM inhibitor, MeO-Suc-Ala-Ala-Pro-Val-NH2Mec 50 μM, N = 3
T2 construct: purchased Elastin Products, Missouri
T2 sequence (P24158 28-256): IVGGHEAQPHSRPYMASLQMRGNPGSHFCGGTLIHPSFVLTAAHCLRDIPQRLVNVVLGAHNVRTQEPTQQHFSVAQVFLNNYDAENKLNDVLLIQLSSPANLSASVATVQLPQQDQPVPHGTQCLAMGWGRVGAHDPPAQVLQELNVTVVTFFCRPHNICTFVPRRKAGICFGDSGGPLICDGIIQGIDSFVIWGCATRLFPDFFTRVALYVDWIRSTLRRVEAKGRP
Excerpt: as §1, §2

cathepsin G = molecular target: T3, cathepsin G (Homo sapiens, UniProt P08311); assay: Fluorogenic protease activity assay, cathepsin G; format: biochemical; settings: 10 μM inhibitor, Suc-Ala-Ala-Pro-Phe-NH2Mec 50 μM, N = 3
T3 construct: purchased Elastin Products, Missouri
T3 sequence (P08311 21-255): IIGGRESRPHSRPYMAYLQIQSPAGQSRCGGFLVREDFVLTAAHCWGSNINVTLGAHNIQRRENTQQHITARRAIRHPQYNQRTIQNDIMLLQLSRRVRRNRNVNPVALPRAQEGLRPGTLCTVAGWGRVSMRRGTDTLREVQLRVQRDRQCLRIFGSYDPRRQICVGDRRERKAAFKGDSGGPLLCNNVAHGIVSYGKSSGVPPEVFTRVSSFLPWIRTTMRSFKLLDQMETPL
Excerpt: as §1, §2

chymotrypsin = assay: Fluorogenic protease activity assay, chymotrypsin; format: biochemical, human; settings: 10 μM inhibitor, Suc-Ala-Ala-Pro-Phe-NH2Mec 50 μM, N = 3
Excerpt: as §1, §2

recombinant human furin = molecular target: T4, recombinant human furin (Homo sapiens, UniProt P09958); assay: Western blot with streptavidin-HRP of inhibitor-furin complex; format: binding; settings: QUB-F1 100 μM, furin 0.4 μg, reducing and denaturing conditions
T4 construct: purchased R&D Systems
Experimental: Recombinant human furin (0.4 μg) was incubated with QUB-F1 (100 μM) for 45 minutes at 37°C. The sample was then denatured and reduced in Laemmli treatment buffer for 5 minutes at 95°C, resolved by SDS-PAGE, before transfer onto a nitrocellulose membrane which was blocked with a solution of Tris-buffered saline (TBS) containing 3% (w/v) bovine serum albumin and 0.1% (v/v) Tween-20. The membrane was subsequently probed with a streptavidin-Horseradish peroxidase conjugate (1:10,000) (Vector-Laboratories) in blocking solution for 1 h prior to detection by chemiluminescence (Luminata Forte Western HRP substrate (Millipore)).
Fig 1 Irreversible inhibition and visualization of recombinant human furin by QUB-F1. […] The inhibitor-proteases complex can be visualized using streptavidin-HRP, which detects the biotin reporter group on the compound.

T4 sequence (P09958 108-794): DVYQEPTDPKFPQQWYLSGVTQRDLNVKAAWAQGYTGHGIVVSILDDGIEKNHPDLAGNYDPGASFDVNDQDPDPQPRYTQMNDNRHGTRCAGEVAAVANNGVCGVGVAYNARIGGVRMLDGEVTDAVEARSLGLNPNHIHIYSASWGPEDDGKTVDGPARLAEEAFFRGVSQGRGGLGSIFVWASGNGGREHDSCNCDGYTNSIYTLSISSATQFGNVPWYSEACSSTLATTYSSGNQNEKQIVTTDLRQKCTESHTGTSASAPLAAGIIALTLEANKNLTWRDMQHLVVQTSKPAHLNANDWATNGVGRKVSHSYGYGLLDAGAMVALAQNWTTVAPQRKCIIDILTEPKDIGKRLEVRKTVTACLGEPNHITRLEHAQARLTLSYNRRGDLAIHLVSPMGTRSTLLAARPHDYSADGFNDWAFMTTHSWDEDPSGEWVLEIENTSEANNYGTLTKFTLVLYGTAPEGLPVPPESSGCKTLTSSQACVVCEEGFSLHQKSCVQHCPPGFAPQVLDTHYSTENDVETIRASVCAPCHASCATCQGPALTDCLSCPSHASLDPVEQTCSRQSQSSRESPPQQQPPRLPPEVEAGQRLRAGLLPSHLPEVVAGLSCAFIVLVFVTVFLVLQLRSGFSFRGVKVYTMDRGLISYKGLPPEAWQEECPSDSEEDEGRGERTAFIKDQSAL

With CCCCCCCCCCCCCCCC(=O)N[C@@H](CCCCNC(=O)CCCCCNC(=O)CCCC[C@@H]1SC[C@@H]2NC(=O)N[C@@H]21)C(=O)N[C@@H](CCCNC(=N)N)C(=O)N[C@H](C(=O)N[C@@H](CCCCN)C(=O)NC(CCCNC(=N)N)P(=O)(Oc1ccccc1)Oc1ccccc1)C(C)C (stereo partly drawn) [QUB-F1, N^α-Pal-N^ω-(Biotinyl-Ahx)-Lys-RVKR^P(OPh)2] (Palmitoyl-K([Ahx-Biotin])RVK-X1) the inhibition of matriptase (matriptase) was “did not”, the “inhibition of proteinase 3” value (proteinase 3) was “Neither compound was found to inhibit” and the “inhibition of cathepsin G” value (cathepsin G) was “Neither compound was found to inhibit”. For the same molecule, the inhibition of chymotrypsin (chymotrypsin) was “Neither compound was found to inhibit” and the “irreversible binding to furin (visualized by streptavidin-HRP)” value (recombinant human furin) was “irreversibly bound”.
